Results on 4 molecules are retold here after ChEMBL document CHEMBL4699602, “Stapled and Xenopus Glucagon-Like Peptide 1 (GLP-1)-Based Dual GLP-1/Gastrin Receptor Agonists with Improved Metabolic Benefits in Rodent Models of Obesity and Diabetes” (J Med Chem, 2020).

Calls of active or inactive are those of the source. No cut-off for these calls is given here. *1 amine or outer side, *2 acyl side, *3 side chain or, on linkers, in order; H or OH if unused. Where a SMILES comes first, the peptide text is derived from it. Bridges are numbered along the chain shown (N, C = ends). [ ]: non-standard residue; d: D form. X5 = O=C(O)CCCCCCCCCCCCCCCCC(=O)NC(CCC(=O)NCCOCCOCC(=O)NCCOCCOCC(=O)NCCCCCCNC(=O)C(CCCCNC(=O)CCN1C(=O)CC([*:2])C1=O)NC(=O)CCN1C(=O)CC([*:1])C1=O)C(=O)O; Aib = CC(C)(N)C(=O)O

A word on the EC50: it is the concentration at which the effect is half-maximal.

For series [1], the target named is T1, Glucagon-like peptide 1 receptor (Homo sapiens, UniProt P43220). In words: Ratio of EC50 for agonist activity at human GLP-1R expressed in HEK293 cells in presence of 4.4% HSA to EC50 for agonist activity at human GLP-1R expressed in HEK293 cells in presence of 0% HSA. The series is classed as cell-based.
Series [2] has as its target T1, Glucagon-like peptide 1 receptor. In words: Agonist activity at human GLP-1R expressed in HEK293 cells assessed as stimulation of cAMP accumulation incubated for 20 mins in presence of 4.4% HSA. The series is classed as functional, cell-based. A general note: Changes in cAMP serve as a functional read-out for many G protein-coupled receptors.
The test system of series [3] is Mus musculus. In words: Reduction in fasted hyperglycemia in C57BL/6 mouse model of diet induced obesity at 25 nmol/kg, sc dosed every 2 days for 1 week relative to control. Particulars: time 1.0 weeks. The format is functional, organism-based.
In series [4] the target is serum albumin (Homo sapiens, UniProt P02768). In words: Binding affinity to human serum albumin in PBS pH 7.4 at 100 ug/mL incubated for 2 hrs by LC-MS/MS analysis relative to control. The series is classed as ADME. Particulars: at 100 µg/mL, read-out: PB (converted).
In series [5] the test system is Mus musculus. In words: Hypoglycemic activity in non-fasted db/db mouse assessed as decrease in blood glucose concentration at 25 nmol/kg, sc by OGTT method. The series is classed as functional, organism-based.
For series [6], the target named is T1, Glucagon-like peptide 1 receptor. The series is described as follows: Agonist activity at human GLP-1R expressed in HEK293 cells assessed as stimulation of cAMP accumulation incubated for 20 mins in presence of 0% HSA. The series is classed as functional, cell-based.
Series [7] relates to Mus musculus. In words: Reduction in body weight in C57BL/6 mouse model of diet induced obesity at 25 nmol/kg, sc dosed every 2 days for 1 week relative to control. Particulars: time 1 weeks. Details: scale not given: the % may be the effect or the level left. The format is functional.
For series [8], the system named is Mus musculus. In words: Hypoglycemic activity in non-fasted db/db mouse assessed as duration of time during which decrease in blood glucose concentration is observed at 25 nmol/kg, sc by OGTT method. The format is functional.
The test system of series [9] is Mus musculus. The series is described as follows: Reduction in food intake in C57BL/6 mouse model of diet induced obesity at 25 nmol/kg, sc dosed every 2 days for 1 week relative to control. Particulars: time 1.0 weeks. The format is functional, organism-based.

serum albumin, sequence (P02768 whole entry): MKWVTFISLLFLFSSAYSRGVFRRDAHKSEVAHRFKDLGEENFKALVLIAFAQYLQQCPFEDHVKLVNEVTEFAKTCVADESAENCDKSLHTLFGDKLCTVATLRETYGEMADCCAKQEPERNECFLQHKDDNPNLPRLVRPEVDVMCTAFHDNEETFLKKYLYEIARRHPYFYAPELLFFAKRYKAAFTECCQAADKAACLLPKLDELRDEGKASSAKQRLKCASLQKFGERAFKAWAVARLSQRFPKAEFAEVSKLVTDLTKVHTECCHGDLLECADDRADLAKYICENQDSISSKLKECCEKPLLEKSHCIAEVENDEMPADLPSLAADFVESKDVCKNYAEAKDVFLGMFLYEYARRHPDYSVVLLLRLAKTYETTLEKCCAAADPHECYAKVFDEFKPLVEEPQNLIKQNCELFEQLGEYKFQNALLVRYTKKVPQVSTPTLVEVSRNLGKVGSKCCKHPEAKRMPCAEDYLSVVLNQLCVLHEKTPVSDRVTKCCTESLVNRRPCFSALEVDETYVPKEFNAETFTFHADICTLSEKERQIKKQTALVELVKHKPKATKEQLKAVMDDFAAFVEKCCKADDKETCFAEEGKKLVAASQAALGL
T1 sequence (P43220 whole entry): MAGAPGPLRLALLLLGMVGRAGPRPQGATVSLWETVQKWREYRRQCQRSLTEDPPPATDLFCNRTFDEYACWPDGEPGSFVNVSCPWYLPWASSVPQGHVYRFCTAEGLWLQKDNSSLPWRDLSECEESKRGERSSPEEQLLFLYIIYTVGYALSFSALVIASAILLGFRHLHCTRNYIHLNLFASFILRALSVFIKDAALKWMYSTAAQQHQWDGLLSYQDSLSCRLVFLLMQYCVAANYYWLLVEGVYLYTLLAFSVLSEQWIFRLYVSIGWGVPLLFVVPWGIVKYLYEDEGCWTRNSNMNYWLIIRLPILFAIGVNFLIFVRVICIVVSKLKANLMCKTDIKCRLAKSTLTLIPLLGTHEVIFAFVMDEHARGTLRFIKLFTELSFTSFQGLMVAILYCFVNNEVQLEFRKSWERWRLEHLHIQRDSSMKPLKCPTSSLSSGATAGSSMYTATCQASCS

Regarding `CC[C@H](C)[C@H](NC(=O)[C@H](CC(C)C)NC(=O)[C@H](Cc1c[nH]c2ccccc12)NC(=O)[C@H](CCC(=O)O)NC(=O)[C@@H](NC(=O)[C@H](Cc1ccccc1)NC(=O)[C@@H]1CSC2CC(=O)N(CCC(=O)NC(C(=O)NCCCCCCNC(=O)COCCOCCNC(=O)COCCOCCNC(=O)CCC(NC(=O)CCCCCCCCCCCCCCCCC(=O)O)C(=O)O)CCCCNC(=O)CCN3C(=O)CC(SC[C@H](NC(=O)[C@H](Cc4ccc(O)cc4)NC(=O)[C@H](CCC(=O)O)NC(=O)[C@@H](NC(=O)[C@@H](NC(=O)[C@H](CC(=O)O)NC(=O)[C@H](CC(N)=O)NC(=O)[C@@H](NC(=O)[C@H](Cc4ccc(O)cc4)NC(=O)[C@@H](NC(=O)CNC(=O)[C@H](CCC(=O)O)NC(=O)C(C)(C)NC(=O)[C@@H](N)Cc4c[nH]cn4)[C@@H](C)O)[C@@H](C)O)C(C)C)[C@@H](C)O)C(=O)N[C@@H](CCC(=O)O)C(=O)N[C@@H](CCC(=O)O)C(=O)N[C@@H](CCC(=O)O)C(=O)N[C@@H](C)C(=O)N[C@@H](C)C(=O)N[C@@H](CCCCN)C(=O)N1)C3=O)C2=O)[C@@H](C)CC)C(=O)N[C@@H](CCCCN)C(=O)NCC(=O)N[C@@H](CCCCN)C(=O)N1CCC[C@H]1C(=O)N[C@@H](CO)C(=O)N[C@@H](CO)C(=O)NCC(=O)N[C@@H](C)C(=O)N1CCC[C@H]1C(=O)N1CCC[C@H]1C(=O)N1CCC[C@H]1C(=O)N[C@@H](CO)C(N)=O` (some centres undefined) (HELM PEPTIDE1{H.[Aib].E.G.T.Y.T.N.D.V.T.E.Y.C.E.E.E.A.A.K.C.F.I.E.W.L.I.K.G.K.P.S.S.G.A.P.P.P.S.[am]}|CHEM1{[O=C(O)CCCCCCCCCCCCCCCCC(=O)NC(CCC(=O)NCCOCCOCC(=O)NCCOCCOCC(=O)NCCCCCCNC(=O)C(CCCCNC(=O)CCN1C(=O)CC([*:1])C1=O)NC(=O)CCN1C(=O)CC([*:2])C1=O)C(=O)O]}$PEPTIDE1,CHEM1,14:R3-1:R1|PEPTIDE1,CHEM1,21:R3-1:R2$$$V2.0), the Ratio EC50 in series [1] is 108. The EC50 in series [2] came to 2.7 nM; in [6], 0.025 nM. Also, the outcome in [3] and in series [5] was Active. In addition, the fraction unbound at 2 h, 100 ug/mL in [4] is 0.047. The Activity in series [7] is given as 13.8%. The Time in series [8] was determined as 24 h.

As to `CC[C@H](C)[C@H](NC(=O)[C@H](CC(C)C)NC(=O)[C@H](Cc1c[nH]c2ccccc12)NC(=O)[C@H](CCC(=O)O)NC(=O)[C@@H](NC(=O)[C@H](Cc1ccccc1)NC(=O)[C@@H]1CSC2CC(=O)N(CCC(=O)NC(C(=O)NCCCCCCNC(=O)COCCOCCNC(=O)CCC(NC(=O)CCCCCCCCCCCCCCCCC(=O)O)C(=O)O)CCCCNC(=O)CCN3C(=O)CC(SC[C@H](NC(=O)[C@H](Cc4ccc(O)cc4)NC(=O)[C@H](CCC(=O)O)NC(=O)[C@@H](NC(=O)[C@@H](NC(=O)[C@H](CC(=O)O)NC(=O)[C@H](CC(N)=O)NC(=O)[C@@H](NC(=O)[C@H](Cc4ccc(O)cc4)NC(=O)[C@@H](NC(=O)CNC(=O)[C@H](CCC(=O)O)NC(=O)C(C)(C)NC(=O)[C@@H](N)Cc4c[nH]cn4)[C@@H](C)O)[C@@H](C)O)C(C)C)[C@@H](C)O)C(=O)N[C@@H](CCC(=O)O)C(=O)N[C@@H](CCC(=O)O)C(=O)N[C@@H](CCC(=O)O)C(=O)N[C@@H](C)C(=O)N[C@@H](C)C(=O)N[C@@H](CCCCN)C(=O)N1)C3=O)C2=O)[C@@H](C)CC)C(=O)N[C@@H](CCCCN)C(=O)NCC(=O)N[C@@H](CCCCN)C(N)=O` (some centres undefined) (HELM PEPTIDE1{H.[Aib].E.G.T.Y.T.N.D.V.T.E.Y.C.E.E.E.A.A.K.C.F.I.E.W.L.I.K.G.K.[am]}|CHEM1{[O=C(O)CCCCCCCCCCCCCCCCC(=O)NC(CCC(=O)NCCOCCOCC(=O)NCCCCCCNC(=O)C(CCCCNC(=O)CCN1C(=O)CC([*:1])C1=O)NC(=O)CCN1C(=O)CC([*:2])C1=O)C(=O)O]}$PEPTIDE1,CHEM1,14:R3-1:R1|PEPTIDE1,CHEM1,21:R3-1:R2$$$V2.0), in series [1], the Ratio EC50 is 47.5. The EC50 in series [2] is 2.8 nM; in series [6], 0.059 nM. Besides, the outcome in [3], in series [5] and in [9] was Active. Moreover, the fraction unbound at 2 h, 100 ug/mL in [4] is 0.074. For the same molecule, in series [7], the Activity came to 9.8%. In series [8], the Time was 24 h.

For `CC[C@H](C)[C@@H]1NC(=O)[C@H](CC(C)C)NC(=O)[C@H](Cc2c[nH]c3ccccc23)NC(=O)[C@H](CCC(=O)O)NC(=O)[C@H]([C@@H](C)CC)NC(=O)[C@H](Cc2ccccc2)NC(=O)[C@@H](NC(=O)[C@H](CCCCN)NC(=O)[C@H](C)NC(=O)[C@H](C)NC(=O)[C@H](CCC(=O)O)NC(=O)[C@H](CCC(=O)O)NC(=O)[C@H](CCC(=O)O)NC(=O)[C@H](CC(C)C)NC(=O)[C@H](Cc2ccc(O)cc2)NC(=O)[C@H](CCC(=O)O)NC(=O)[C@@H](NC(=O)[C@@H](NC(=O)[C@H](CC(=O)O)NC(=O)[C@H](CC(N)=O)NC(=O)[C@@H](NC(=O)[C@H](Cc2ccc(O)cc2)NC(=O)[C@@H](NC(=O)CNC(=O)[C@H](CCC(=O)O)NC(=O)C(C)(C)NC(=O)[C@@H](N)Cc2c[nH]cn2)[C@@H](C)O)[C@@H](C)O)C(C)C)[C@@H](C)O)CSC2CC(=O)N(CCC(=O)NC(C(=O)NCCCCCCNC(=O)COCCOCCNC(=O)CCC(NC(=O)CCCCCCCCCCCCCCCCC(=O)O)C(=O)O)CCCCNC(=O)CCN3C(=O)CC(SC[C@@H](C(=O)NCC(=O)N[C@@H](CCCCN)C(N)=O)NC1=O)C3=O)C2=O` (some centres undefined) (HELM PEPTIDE1{H.[Aib].E.G.T.Y.T.N.D.V.T.E.Y.L.E.E.E.A.A.K.C.F.I.E.W.L.I.C.G.K.[am]}|CHEM1{[O=C(O)CCCCCCCCCCCCCCCCC(=O)NC(CCC(=O)NCCOCCOCC(=O)NCCCCCCNC(=O)C(CCCCNC(=O)CCN1C(=O)CC([*:2])C1=O)NC(=O)CCN1C(=O)CC([*:1])C1=O)C(=O)O]}$PEPTIDE1,CHEM1,21:R3-1:R1|PEPTIDE1,CHEM1,28:R3-1:R2$$$V2.0), the Ratio EC50 in series [1] worked out at 55.1. The EC50 in series [2] turned out to be 3.8 nM; in series [6], 0.069 nM. For the same molecule, the result in [3], in [5] and in series [9] was Active. In addition, in series [4], the fraction unbound at 2 h, 100 ug/mL was 0.084. For the same molecule, in series [7], the Activity is on record as 13.4%. Moreover, the Time in series [8] was found to be 24 h.

For the molecule “H-H[Aib]EGTYTNDVTEYLEEEAAKCFIEWLICGKPSSGAPPSKKKKKK-NH2 (linker 21-28 via X5)”, the Ratio EC50 in series [1] turned out to be 79.4. For the same molecule, the figures for the concentration for a half-maximal effect (EC50) in series [2] and in [6] were 2.7 nM and 0.034 nM, respectively. Further, the result in [3] and in series [5] was Active. For the same molecule, the fraction unbound at 2 h, 100 ug/mL in series [4] is 0.033. The molecule also showed an Activity in [7] of 10.6%. The Time in [8] was 24 h.
